Laboratory results published in US8003357B2, “Acidophilic enzymes” (Helmholtz-Zentrum Fuer Infektionsforschung GmbH, priority 2005, dated 2011).

What was measured:
EstFA = EstFA (Ferroplasma acidiphilum, UniProt Q2PCE5); assay: Enantioselectivity of EstFA towards chiral esters and lactones; type: biochemical; details: for % c / % e.e.: 100 mM citrate buffer pH 2.0, 5 μg EstFA, 10 hours; for E: enantioselectivity
Procedure: For an estimation of enantioselectivity of EstFA towards chiral esters and lactones, a number of primary and secondary alcohols as well as carboxylic acids and lactones were hydrolysed.
The above substrate specificities were tested in 96-well plates, using 100 mM citrate buffer (pH 2.0) in the presence of 5 μg pure EstFA. For the substrate, the concentrations between 10 nM and 10 mM were chosen. Progress of the reaction was followed by spectrophotometry using p-nitrophenol propionate as an indicator. The reaction was stopped after 10 hours by adjusting the pH to 8.0 by adding sodium hydroxide from a 100 mM stock solution and phenol red (0.8 mM) as a pH indicator. […] Ester hydrolysis of enantiomerically pure esters was measured colorimetrically in 5.0 mM EPPS buffer (N-(2-hydroxyethyl) piperazine-N′-(3′-propanesulfonic acid) at pH 8.0 and phenol red after termination of the reaction.

αGluFA = αGluFA (Ferroplasma acidiphilum, UniProt Q5K3Q3); assay: Hydrolysis of glycosidic substrates by αGluFA; type: biochemical; details: pH 3.0, 50° C., 100 μM FeCl2
Sequence of αGluFA (Q5K3Q3 entry or part of it): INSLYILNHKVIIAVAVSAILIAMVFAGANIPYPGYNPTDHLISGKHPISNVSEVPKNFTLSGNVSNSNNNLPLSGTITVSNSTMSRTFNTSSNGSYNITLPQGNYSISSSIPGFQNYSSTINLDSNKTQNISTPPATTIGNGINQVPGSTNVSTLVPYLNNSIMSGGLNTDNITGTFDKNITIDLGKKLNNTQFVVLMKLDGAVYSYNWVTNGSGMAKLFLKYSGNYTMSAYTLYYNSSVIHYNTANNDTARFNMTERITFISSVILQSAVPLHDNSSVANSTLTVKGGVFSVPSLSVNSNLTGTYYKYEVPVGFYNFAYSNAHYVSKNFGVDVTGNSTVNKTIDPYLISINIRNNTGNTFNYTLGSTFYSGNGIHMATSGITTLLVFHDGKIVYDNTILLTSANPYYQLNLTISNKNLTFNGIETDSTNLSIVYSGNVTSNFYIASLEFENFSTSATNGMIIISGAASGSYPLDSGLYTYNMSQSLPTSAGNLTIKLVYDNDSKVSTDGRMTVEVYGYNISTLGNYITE
Procedure: A variety of glycosidic substrates were examined for hydrolysis by αGluFA and kinetic constants were determined. For the assay, heterologously expressed αGluFA was incubated in 100 mM sodium citrate buffer, pH 3.0, containing 1% substrate, 100 μM FeCl2 and 5 μg αGluFA. […] Analysis was done by HPLC. Sample blanks were used for correction of spontaneous release of reducing sugar.
As substrates, sucrose, starch, amylose, amylopectin, pullulan and dextrin were used, the release of reducing sugars could also be determined by the dinitrosalicylic acid method, i.e. adding dinitrosalicylic acid solution to the reaction mixture, heating to 85° C. for 30 minutes, dilution with water and measuring absorbance at 450 nm. Activity towards p-nitrophenol α/β diglucopyranoside could be measured spectrophotometrically by following the absorbance at 346 nm using a molar extinction coefficient of 4800.

EstFA (acidic esterase) = assay: Effect of cations and inhibitors on recombinant EstFA activity; type: biochemical, Ferroplasma acidiphilum; design: substitution of Fe^2+ in EstFA: dose or concentration left out as unconfirmed; details: for substitution of Fe^2+ in EstFA: as chloride salts
Procedure: The enzymes used for the tests were heterologously expressed in E. coli using genomic coding sequences obtained from Ferroplasma acidiphilum.
(§1) The acidic enzymes according to the invention were expressed in E. coli using the genomiccoding sequence for the respective enzyme from Ferroplasma acidiphilum, which are described in detail below. For enzymatic conversions, reaction conditions were in 100 mM sodium acetate buffer, 100 mM citrate buffer, 100 mM HEPES buffer for 2 minutes at 30° C., using p-nitrophenol propionate as the substrate for esterase, starch in the case of glycosidases, and HindIII digested λ DNA for ligase.

[1] = system: αGluFA (acidic glucosidase); assay: Effect of cations and inhibitors on recombinant αGluFA activity; type: biochemical, Ferroplasma acidiphilum
Procedure: as §1, with “The enzymes used for the tests were heterologously expressed in E. coli using genomic coding sequences obtained from Ferroplasma acidiphilum. The” for “The”

LigFA (acidic ligase) = assay: Effect of cations and inhibitors on recombinant LigFA activity; type: biochemical, Ferroplasma acidiphilum
Procedure: as §1, with “The enzymes used for the tests were heterologously expressed in E. coli using genomic coding sequences obtained from Ferroplasma acidiphilum. The” for “The”

Sequence of EstFA (Q2PCE5 entry or part of it): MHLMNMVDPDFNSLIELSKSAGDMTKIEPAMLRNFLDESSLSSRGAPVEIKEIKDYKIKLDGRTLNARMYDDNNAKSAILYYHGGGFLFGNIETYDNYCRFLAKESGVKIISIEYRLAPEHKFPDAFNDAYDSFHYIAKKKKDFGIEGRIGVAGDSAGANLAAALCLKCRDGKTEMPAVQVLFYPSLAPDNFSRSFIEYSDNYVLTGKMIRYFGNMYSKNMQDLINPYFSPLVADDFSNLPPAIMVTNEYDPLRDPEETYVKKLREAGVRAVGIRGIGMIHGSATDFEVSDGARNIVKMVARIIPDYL

Row | Compound | % c (EstFA) [%] | % e.e. (EstFA) [%] | E (EstFA) | Activity (%) EstFA (EstFA (acidic esterase); additive 10 mM) [%] | Activity (%) EstFA (EstFA (acidic esterase); additive 125 mM) [%] | Activity (%) αGluFα ([1]; additive 10 mM) [%] | Activity (%) αGluFα ([1]; additive 125 mM) [%] | Activity (%) LigFA (LigFA (acidic ligase); additive 10 mM) [%] | Activity (%) LigFA (LigFA (acidic ligase); additive 125 mM) [%] | also measured
1 | COC(=O)CC(C)O (centres unmarked) [methyl-3-hydroxybutyrate] | 26.2 | 98 | 42.8 | – | – | – | – | – | – | –
2 | soluble starch | – | – | – | – | – | – | – | – | – | Kcat (αGluFA): 94.0 ± 11^ s^−1; Km (αGluFA): 0.11 ± 0.02 mg/mL
3 | [Sr+2] [Sr^2+] | – | – | – | 102.1 | 106.5 | 98.0 | 71.3 | 90.7 | 20.2 | –
4 | [Zn+2] [Zn^2+] | – | – | – | 57.8 | 4.6 | 1.1 | 16.2 | 5.3 | 10.2 | –
5 | COC(=O)C(C)O (centres unmarked) [methyl lactate] | 3.4 | 2.38 | 1.1 | – | – | – | – | – | – | –
6 | CCCC(=O)OCC1COC(C)(C)O1 (centres unmarked) [solketal butyrate] | 29.0 | 74.46 | 9.2 | – | – | – | – | – | – | –
7 | CCCCCCCCCCCCOS(=O)(=O)[O-].[Na+] [SDS] | – | – | – | 75.2 | – | 2.4 | – | 32.6 | – | Activity (%) EstFA (EstFA (acidic esterase); additive 50 mM): 47.3%; Activity (%) αGluFα ([1]; additive 50 mM): 0.5%; Activity (%) LigFA (LigFA (acidic ligase); additive 50 mM): 27.5%
8 | dextrin | – | – | – | – | – | – | – | – | – | Kcat (αGluFA): 93.0 ± 11^ s^−1; Km (αGluFA): 0.221 ± 0.03 mg/mL
9 | O=C(O)CN(CCN(CC(=O)O)CC(=O)O)CC(=O)O [EDTA] | – | – | – | 16.0 | 9.5 | 10.6 | 9.4 | 17.2 | 7.0 | effect of complexing Fe^2+ on EstFA activity (EstFA (acidic esterase); added EDTA): inhibited the activity of EstFA in a reversible manner
10 | [K+] [K^+] | – | – | – | 108.5 | 115.7 | 86.0 | 76.3 | 129.9 | 93.8 | –
11 | [Co+2] [Co^2+] | – | – | – | 55.2 | 68.3 | 72.0 | 82.8 | 102.5 | 88.7 | substitution of Fe^2+ in EstFA (EstFA (acidic esterase)): could not substitute Fe^2+
12 | pullulan | – | – | – | – | – | – | – | – | – | Kcat (αGluFA): 2.8 ± 0.1 s⁻¹; Km (αGluFA): 11.0 ± 0.1 mg/mL
13 | Triton X-100 | – | – | – | – | – | – | – | – | – | Activity (%) EstFA (EstFA (acidic esterase); additive 1%): 74.6%; Activity (%) EstFA (EstFA (acidic esterase); additive 3%): 43.5%; Activity (%) αGluFα ([1]; additive 1%): 95.7%; Activity (%) αGluFα ([1]; additive 3%): 47.4%; Activity (%) LigFA (LigFA (acidic ligase); additive 1%): 62.3%; Activity (%) LigFA (LigFA (acidic ligase); additive 3%): 9.0%
14 | [Ca+2] [Ca^2+] | – | – | – | 116.3 | 100.8 | 91.2 | 74.1 | 126.2 | 81.6 | substitution of Fe^2+ in EstFA (EstFA (acidic esterase)): could not substitute Fe^2+
15 | [Mg+2] [Mg^2+] | – | – | – | 106.1 | 116.8 | 92.2 | 64.7 | 157.0 | 126.8 | substitution of Fe^2+ in EstFA (EstFA (acidic esterase)): could not substitute Fe^2+
16 | [Mn+2] [manganese] | – | – | – | – | – | – | – | – | – | substitution of Fe^2+ in EstFA (EstFA (acidic esterase)): could not substitute Fe^2+
17 | [Li+] [Li^+] | – | – | – | 100.2 | 48.0 | 107.2 | 69.4 | 101.6 | 107.9 | –
18 | CC1(C)COC(=O)C1O (centres unmarked) [pantolactone] | 10.06 | 39.36 | 2.40 | – | – | – | – | – | – | –
19 | COC(=O)[C@@H](N)Cc1c[nH]c2ccccc12 [tryptophane methylester] | 4.33 | 2.12 | 1.1 | – | – | – | – | – | – | –
20 | N [NH4^+] | – | – | – | 85.2 | 97.1 | 103.8 | 58.8 | 107.2 | 108.2 | –
21 | CCCC(=O)OC(C)c1ccccc1 (centres unmarked) [1-phenyl ethylbutyrate] | 36.2 | 33.7 | 2.4 | – | – | – | – | – | – | –
22 | [Cl][Ni][Cl] [nickel] | – | – | – | – | – | – | – | – | – | substitution of Fe^2+ in EstFA (EstFA (acidic esterase)): could not substitute Fe^2+
23 | COC(=O)C(C)CO (centres unmarked) [methyl-3-hydroxy-2-methylpropionate] | 30.8 | 98 | 116.2 | – | – | – | – | – | – | –
24 | amylopectin | – | – | – | – | – | – | – | – | – | Kcat (αGluFA): 89 ± 10.5 s⁻¹; Km (αGluFA): 1.05 ± 0.19 mg/mL
25 | CC(=O)OC1CC(C)CCC1C(C)C (centres unmarked) [menthyl acetate] | 42.2 | 78.4 | 14.7 | – | – | – | – | – | – | –
26 | amylose | – | – | – | – | – | – | – | – | – | Kcat (αGluFA): 126.0 ± 7.5 s⁻¹; Km (αGluFA): 7.49 ± 0.88 mg/mL
27 | O=C1CCC(CO)O1 (centres unmarked) [dihydro-5-hydroxymethyl-2(3H)-furanone] | 39.3 | 88.6 | 29.7 | – | – | – | – | – | – | –
28 | OCCS [mercaptoethanol] | – | – | – | – | – | – | – | – | – | Activity (%) EstFA (EstFA (acidic esterase); additive 1 mM): 55%
29 | COC(=O)[C@H](C)N [alanine methylester] | 8.71 | 2.5 | 3.8 | – | – | – | – | – | – | –
30 | [Na+] [Na^+] | – | – | – | 102.8 | 91.2 | 86.3 | 74.0 | 71.1 | 100 | –
